US20180279622A1, “1-AMINO-1-CYCLOPROPANECARBOXYLIC ACID FORMULATIONS” (Valent BioSciences LLC, priority 2017, published 2018)
Like-named read-outs stand apart in the source and are kept apart here.

How the values were obtained:
[1] = Color change inhibition (Gardner Color Scale); format: physicochemical; details: for Color (Gardner Scale): 54° C. for two weeks
Experimental: Specifically, the color changed from clear or a 1 on the Gardner Scale to a yellow color of 4-5 on the Gardener Scale. See ASTM D1544-04(2010), Standard Test Method for Color of Transparent Liquids (Gardner Color Scale), ASTM International, West Conshohocken, Pa., 2010, www.astm.org for explanation of the Gardner scale. To overcome this problem several methods were tested including lowering the pH to 4.0, packaging under nitrogen gas blanket, adding specific salts, chelating agents, antioxidants or preservatives.

[2] = ACC precipitation and crystallization tests; format: physicochemical
Experimental: To overcome this problem, salts were added individually to 10% w/w ACC aqueous solutions. These solutions were stored at room temperature and analyzed for precipitate formation.

[3] = ACC precipitation and crystallization tests; format: physicochemical; remark: listed apart in the source
[4] = tested on: cotton cotyledons; test: Cotton cotyledon bioefficacy assay (headspace ethylene evolution); format: in vivo
Experimental: The solutions were amended with 0.05% (v/v) of a non-ionic surfactant and spray applied to the adaxial surface of 10-day old cotton cotyledons using a track sprayer. In addition to ACC-containing solutions, appropriate controls were tested. Two days (48 hours) after spray application, the cotyledons from each plant were removed, weighed and incubated in sealed glass vials for 4 to 7 hours. Headspace ethylene evolution by the cotyledons was measured by gas chromatography using standard methods. The assay from Example 5, above, was repeated with a formulation containing 0.2% w/w EDTA.

[5] = tested on: Gala apple trees; test: Apple thinning; format: in vivo; details: foliar spray at 18 to 20 mm mean fruit diameter
Experimental: The formula from Example 8, above, was diluted to prepare 200 and 400 ppm ACC solutions. These solutions were applied as a foliar spray to Gala apple trees grown at three separate locations when the mean fruit diameter was from 18 to 20 millimeters. […] Thinning activity is expressed as the number of fruit set per 100 flower clusters after the completion of natural fruit drop.

[6] = salt added to 10% w/w ACC aqueous solution, stored at room temperature
[7] = salt added to 10% w/w ACC aqueous solution, 5° C. overnight
[8] = additive 0.2 % w/w in 10% ACC, 10% calcium chloride, Kathon CG/ICP formulation

Cl [2N hydrochloric acid, hydrochloric acid]
Color (Gardner Scale) ([1]; additive 0.6-0.9 % w/w): 3-4

CC(O)C(=O)[O-].CC(O)C(=O)[O-].O.O.O.O.O.[Ca+2] (stereo not drawn) [(CH3CH(OH)COO)2Ca•5H2O]
Precipitation (room temperature) [2, 6]: YES
Precipitation (5° C.) [3, 7]: YES

NC1(C(=O)O)CC1 [ACC, 1-amino-1-cyclopropanecarboxylic acid]
Precipitation ([2]; 10% w/w ACC free acid in water, no salt, room temperature and/or 5° C.): precipitate
Ethylene ([4]; ACC 500 ppm, molar ratio 1:0, 48 hours after spray): 39.80 nL/gFW/hr
Ethylene ([4]; Example 6, ACC 500 ppm): 27.6 nL/g FW/hr
Thinning Activity ([5]; Geneva, NY, 200 ppm ACC): 47 fruit set per 100 flower clusters
Thinning Activity ([5]; Geneva, NY, 400 ppm ACC): 37 fruit set per 100 flower clusters
Thinning Activity ([5]; Monitor, WA, 200 ppm ACC): 32 fruit set per 100 flower clusters
Thinning Activity ([5]; Monitor, WA, 400 ppm ACC): 10 fruit set per 100 flower clusters
Thinning Activity ([5]; Parkdale, OR, 200 ppm ACC): 267 fruit set per 100 flower clusters
Thinning Activity ([5]; Parkdale, OR, 400 ppm ACC): 194 fruit set per 100 flower clusters

O=[N+]([O-])[O-].[Ag+] [AgNO3]
Precipitation (room temperature) [2, 6]: YES
Precipitation (5° C.) [3, 7]: YES

O=S(=O)([O-])[O-].O=S(=O)([O-])[O-].O=S(=O)([O-])[O-].[Al+3].[Al+3] [Al2(SO4)3]
Precipitation (room temperature) [2, 6]: YES
Precipitation (5° C.) [3, 7]: YES

O=C1O[C@H]([C@@H](O)CO)C(O)=C1O [Ascorbic acid]
Color (Gardner Scale) [1, 8]: >18

[Ba+2].[Cl-].[Cl-] [BaCl2]
Precipitation (5° C.) [3, 7]: YES

O=[N+]([O-])[O-].O=[N+]([O-])[O-].[Ca+2] [Ca(NO3)2]
Precipitation (5° C.) [3, 7]: YES

[Ca+2].[Cl-].[Cl-] [CaCl2, calcium chloride]
Ethylene ([4]; CaCl2 550 ppm, molar ratio ACC:CaCl2 0:1, 48 hours after spray): 1.49 nL/gFW/hr

O=S(=O)([O-])[O-].[Ca+2] [CaSO4]
Precipitation (room temperature) [2, 6]: YES
Precipitation (5° C.) [3, 7]: YES

O=C(O)CC(O)(CC(=O)O)C(=O)O [Citric acid]
Color (Gardner Scale) [1, 8]: 4-5

O=C(O)CN(CCN(CC(=O)O)CC(=O)O)CC(=O)O [EDTA, ethylenediaminetetraacetic acid]
Gardner scale score ([1]; EDTA at 0.1% or 0.2% w/w, 2 weeks at 54° C.): ≤ 2
Gardner scale score ([1]; EDTA at 0.1% or 0.2% w/w, 2 weeks plus 6 additional weeks at 54° C.): 1-2
Color maintenance versus pH ([1]; EDTA at 0.1% or 0.2% w/w, pH 4.0): best results
Time clear color maintained ([1]; EDTA at 0.1% or 0.2% w/w, pH 5.2, 54° C.): at least 4 weeks
Color (Gardner Scale) ([1]; additive 0.1 % w/w): 1-2
Color (Gardner Scale) ([1]; additive 0.5 % w/w): 1-2

O=C(O)/C=C/C(=O)O [Fumaric acid]
Color (Gardner Scale) [1, 8]: 4-5

O=C([O-])CC(O)(CC(=O)[O-])C(=O)[O-].[Fe+3] [Iron(III) citrate hydrate]
Precipitation (room temperature) [2, 6]: YES
Precipitation (5° C.) [3, 7]: YES

[Cl-].[K+] [KCl]
Precipitation (room temperature) [2, 6]: YES
Precipitation (5° C.) [3, 7]: YES

O=[N+]([O-])[O-].[K+] [KNO3]
Precipitation (room temperature) [2, 6]: YES
Precipitation (5° C.) [3, 7]: YES

O=[N+]([O-])[O-].O=[N+]([O-])[O-].[Mg+2] [Mg(NO3)2]
Precipitation (5° C.) [3, 7]: YES

[Cl-].[Cl-].[Mg+2] [MgCl2]
Precipitation (5° C.) [3, 7]: YES

Cl.N [NH4Cl]
Precipitation (room temperature) [2, 6]: YES
Precipitation (5° C.) [3, 7]: YES

N.O=[N+]([O-])O [NH4NO3]
Precipitation (room temperature) [2]: YES
Precipitation (5° C.) [3]: YES

CC(=O)[O-].[Na+] [Sodium acetate]
Color (Gardner Scale) [1, 8]: 4-5

O=C([O-])CC(O)(CC(=O)[O-])C(=O)[O-].[Na+].[Na+].[Na+] [Sodium citrate]
Color (Gardner Scale) [1, 8]: 4-5

NC(N)=O [Urea]
Color (Gardner Scale) [1, 8]: 5-6
